Laboratory results reported in ChEMBL document CHEMBL1201862, “PubChem BioAssay data set” (2004).
Several values for one entry are separate records, joined by “and”; a condition that tells them apart may be missing. Identical values can stand only once.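 48-hour exposure; five concentrations; linearly interpolated endpoints. Abbreviation: GI50, concentration required for 50% inhibition of growth.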 Activity calls are given as the source filed them. Cut-off read from the data, not from the text of the source: active = GI50 up to about 1.1 µM and inactive = higher. Residues, ends and D or L forms follow the SMILES beside them. *: point of attachment. Boc = CC(C)(C)OC(=O)*; OBn = c1ccc(CO*)cc1

Assays:
Test in all cases: NCI-60 cell line screen, 48 h
[1] = system: TK-10
[2] = system: CAKI-1
[3] = system: Hs-578T
[4] = system: UO-31
[5] = system: MDA-MB-435
[6] = system: HL-60
[7] = system: SF-268
[8] = system: UACC-257
[9] = system: PC-3
[10] = system: SN12C
[11] = system: OVCAR-4
[12] = system: CCRF-CEM
[13] = system: NCI-H460
[14] = system: SR
[15] = system: SK-OV-3
[16] = system: T47D
[17] = system: SK-MEL-28
[18] = system: HCT-116
[19] = system: HCT-15

Row | Compound | GI50 [1] | GI50 [2] | GI50 [3] | GI50 [4] | GI50 [5] | GI50 [6] | GI50 [7] | GI50 [8] | GI50 [9] | GI50 [10] | GI50 [11] | GI50 [12] | GI50 [13] | GI50 [14] | GI50 [15] | GI50 [16] | GI50 [17] | GI50 [18] | GI50 [19] [µM]
1 | O=C(O)C(C1NCCS1)N1C(=O)c2ccccc2C1=O (centres undefined) | > 100 µM (inactive) | > 100 µM (inactive) | > 100 µM (inactive) | > 100 µM (inactive) | > 100 µM (inactive) | > 100 µM (inactive) | > 100 µM (inactive) | > 100 µM (inactive) | > 100 µM (inactive) | > 100 µM (inactive) | > 100 µM (inactive) | > 100 µM (inactive) | > 100 µM (inactive) | > 100 µM (inactive) | > 100 µM (inactive) | > 100 µM (inactive) | > 100 µM (inactive) | > 100 µM (inactive) | > 100
2 | O=C(NN1CCCCC1)c1cc2cc(CCl)ccc2oc1=O | 17 µM (inactive) | 18.1 µM (inactive) | 16.3 µM (inactive) | 18.5 µM (inactive) | 18.5 µM (inactive) | 16.5 µM (inactive) | 16.4 µM (inactive) | 21.6 µM (inactive) | 14.8 µM (inactive) | 18.4 µM (inactive) | 18.4 µM (inactive) | 17.2 µM (inactive) | 14.9 µM (inactive) | 21.2 µM (inactive) | 21.9 µM (inactive) | 20.9 µM (inactive) | 29.3 µM (inactive) | 18.2 µM (inactive) | 17.7
3 | CN1CCN(c2ccc3[nH]c(-c4ccc5[nH]c(-c6ccc(N(C)CCCl)cc6)nc5c4)nc3c2)CC1 | 2.87 µM (inactive) | 4.41 µM (inactive) | 0.206 µM (active) | 18.7 µM (inactive) | 0.144 µM (active) | < 0.01 µM (active) | 0.0622 µM (active) | 1.66 µM (inactive) | 0.136 µM (active) | 0.0461 µM (active) | 0.305 µM (active) | < 0.01 µM (active) | 0.222 µM (active) | 0.0301 µM (active) | 0.196 µM (active) | 0.174 µM (active) | 0.32 µM (active) | 0.239 µM (active) | 12.6
4 | O=[N+]([O-])c1cc2oc(COc3ccccc3)nc2cc1Cl | 35 µM (inactive) | 22.7 µM (inactive) | 38.6 µM (inactive) | 27.2 µM (inactive) | 23.6 µM (inactive) | 38.1 µM (inactive) | 47.4 µM (inactive) | 22.1 µM (inactive) | 38.4 µM (inactive) | 24.7 µM (inactive) | 34.9 µM (inactive) | 27.5 µM (inactive) | 21.3 µM (inactive) | 29.4 µM (inactive) | 24.9 µM (inactive) | 18.4 µM (inactive) | 32.6 µM (inactive) | 19 µM (inactive) | 18.7
5 | CC(C)C(NC(=O)CNC(=O)C1CCCN1C(=O)C(NC(=O)OC(C)(C)C)C(C)C)C(=O)NCC(=O)OCc1ccccc1 (centres undefined) (Boc-VPGVG-OBn; configuration not given here) |  | > 100 µM (inactive) | 80.7 µM (inactive) | > 100 µM (inactive) | > 100 µM (inactive) | > 100 µM (inactive) and 72.8 µM (inactive) | > 100 µM (inactive) | > 100 µM (inactive) | > 100 µM (inactive) | > 100 µM (inactive) | > 100 µM (inactive) | > 100 µM (inactive) | > 100 µM (inactive) | > 100 µM (inactive) | > 100 µM (inactive) | > 100 µM (inactive) | > 100 µM (inactive) | > 100 µM (inactive) | > 100
